# From US20100099698A1, “Compositions for Improving Skin Conditions Comprising Matrine or Its Oxidized Derivatives” (Biospectrum Inc., priority 2007, published 2010)
# Columns and labels:
# pigmentation of skin = test: Skin whitening of UV-induced pigmentation, chromameter L* value; type: in vivo, brown guinea pigs; settings: for Whitening effects (ΔL): topical once or twice a day for 50 days, UV-pigmented abdominal skin
# Description: A whitening effect of matrine and oxymatrine was measured using brown guinea pigs (Charles River Laboratories, Inc.), known to increase its pigmentation upon exposure to ultraviolet light, like in humans. To cause pigmentation in the brown guinea pig by ultraviolet (UV), aluminum foil with square windows of 3×3 cm^2 was adhered to hair-removed abdominal skin of brown guinea pig, and then UV light was irradiated thereon with a SE lamp (wavelength 290-320 nm, Toshiba) (total irradiation energy=1350 mJ/cm^2). After UV irradiation, the aluminum foil was removed and samples (matrine, oxymatrine or albutin) were applied as the following method. […] From the maximum, samples were applied. Applications performed once or twice a day for 50 days. […] The control with only the solvent was applied to another site. Occurrence of cumulative irritation also was examined. The degree of pigmentation of skin was determined using a chromameter (CR2002, MINOLTA, JP) to estimate the effects of applied samples. L*a*b* colorimetric system was used to classify color and L* value was used as standard in the present invention. The L* value was corrected using white board standard and was measured more than five times at one site, repeatedly. Pigmentation was evenly distributed. Skin color differences (ΔL*) between application initial point and application terminal point were obtained and then using these values, their effects of the applied samples were estimated. ΔL*=L* value at […] after application-L* value at application initial day. Equation 1 ΔL* values were obtained both at sample application site and control application site and compared, whereby the effects of the whitening substances can be estimated.
# [1] = tested on: collagen (Type 1 collagen) biosynthesis; test: Collagen synthesis: procollagen type I C-peptide (PICP) EIA in medium of treated fibroblasts; type: cell-based; settings: 24 hr, human fibroblasts
# Description: (§1) Human fibroblasts (commercially available from pacific) were seeded into a 6-well plate (2×10^5 cells/well) and the well plate was incubated in a 5% CO2 incubator for 24 hr at 37° C. After 24 hr, the medium in each well was removed and samples were treated with various concentrations, followed by incubating again for 24 hr. Following incubation, the cell medium was collected and was used as samples. To measure cytotoxicity of samples to fibroblasts, MIT reagent (1 mg/ml) was added to each well in 1/10 fold volume of the remaining medium, incubated for 3 hr and the medium was eliminated. The medium was dissolved in DMSO and its absorbance at 540 nm was measured.
# The extent of collagen synthesis was determined by measuring the amount of procollagen type I C-peptide (PICP) in cell medium using Procollagen Type I C-peptide EIA kit (MK101, Takara, Kyoto, Japan). The method was performed in accordance with manufacturer's protocol.
# COX (cyclooxygenase) = test: COX inhibitory ability in LPS-treated THP-1 cells, [1-14C] arachidonic acid, TLC; type: cell-based, human; settings: LPS alone = 100
# Description: To determine whether matrine and oxymatrine had anti-inflammatory effects, the experiment of COX (cyclooxygenase) inhibitory ability was carried out using human monocytic cell, THP-1 cell (Korean Cell Line Bank) according to conventional method. […] J. Van de Ouderaaa and Muytenhek. THP-1 cell line was cultivated and aliquoted into 24-well plate. The incubation volume per well was adjusted to 500 μl, 2 μl of the sample compound, which dissolved in […] (1 μg/ml, Sigma) and solvents described in the following Table 9 respectively, was added and cultivated for 24-48 hr under the same condition. After 24-48 hr, calcium ionophore (Sigma) and [1-14C] arachidonic acid 1 μl (in EtOH, 0.1 μCi/ml, Sigma) were added to each well, and cultivated for 10 min under the same condition. Following the cultivation, citric acid was added to each well for adjusting to pH 3.5, shaked, each 500 μl of cultivation solution taken from the plate was aliquoted into micro centrifuge tube, 700 μl of ethylacetate was added to thereto, and the solution was shaking extracted for 10 min. 500 μl of ethylacetate layer was concentrated using speed vacuum dryer for 20 min, 20 μl of the residual was dissolved in ethylacetate, and the resultant was employed with authentic standard in TLC plate. The radioactive band was identified by authentic eicosanoid standards, the radioactivity of the identified band was measured using BAS 2000 bio-imaging analyzer (Fuji, JP) (Table 9).
# human skin = test: 24-hour cumulative patch test (Finn chamber), cumulative skin irritation; type: in vivo; settings: for Average reaction level: 9 patches, 30 adults, safe if below 3
# Description: In order to find out whether matrine and oxymatrine are safe for use on human skin, a skin safety test was conducted. Suitable for this was a cumulative skin irritation test.
# Squalene-based preparations containing matrine and oxymatrine in amounts of 1%, 5%, and 10% were applied in patches 9 times to the upper arms of 30 healthy adults once every other day for a total time period of 24 hours. This 24-hour cumulative patch test was conducted to determine whether matrine and oxymatrine irritates the skin or not.
# The Finn chamber (Epitest Ltd, Finland) was chosen as the patching method. The above preparation for external use on the skin was dropped into each chamber in an amount of 15 μl, and a patch was applied.
# Average reaction level=[{(Reaction index x reaction level)/No. of test subjects×maximum points (4 points)}×100]÷No. of test (9 times) Equation 2
# Points were marked in accordance with reaction level, for example, ± for 1 point, + for 2 points, and ++ for […]. The composition can be considered safe if the average reaction level is below 3.
# collagenase (MMP-1) = target: T1, collagenase (MMP-1) (Homo sapiens, UniProt P03956); test: Collagenase activity, Type 1 collagenase assay kit, PMA-induced; type: cell-based
# T1 construct: Following incubation, the cell medium was collected and was used as samples; endogenous in cells; host or cells: human fibroblasts (PMA-induced)
# T1 sequence (P03956 100-469): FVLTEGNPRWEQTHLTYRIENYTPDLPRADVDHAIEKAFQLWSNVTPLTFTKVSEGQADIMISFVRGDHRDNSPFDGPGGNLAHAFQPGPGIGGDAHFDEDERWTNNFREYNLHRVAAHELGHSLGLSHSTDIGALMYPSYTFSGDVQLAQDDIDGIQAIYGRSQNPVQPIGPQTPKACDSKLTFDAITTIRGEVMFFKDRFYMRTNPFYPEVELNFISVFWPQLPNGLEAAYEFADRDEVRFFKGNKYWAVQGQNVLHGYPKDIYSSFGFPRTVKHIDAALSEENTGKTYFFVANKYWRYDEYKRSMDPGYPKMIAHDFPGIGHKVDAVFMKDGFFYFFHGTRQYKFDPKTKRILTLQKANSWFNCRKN
# Description: as §1
# As a method of measuring the activity of collagenase, an enzyme that decomposes collagen, an antibody against collagenase was used. As material inducing collagenase activity, PMA (phorbol myristate acetate, Sigma) was treated. For measuring collagenase activity, a Type 1 collagenase assay kit (Amersham Biosciences, RPN2629) was used, and the absorbance was measured using an ELISA reader (Bio-Tek ELx808™ Series Ultra Microplate Reader, U.K). The measured average values were represented as mean±standard deviation.
# [2] = 5% in squalene, Week 1, of 30 subjects
# [3] = 10% in squalene, Week 1, of 30 subjects
SMILES,Whitening effects (ΔL) (pigmentation of skin; 0.2 %),Whitening effects (ΔL) (pigmentation of skin; 1.0 %),Increasing rate of collagen synthesis (%) ([1]; 1 μM),Increasing rate of collagen synthesis (%) ([1]; 10 μM),Increasing rate of collagen synthesis (%) ([1]; 50 μM),COX activities (%) (COX (cyclooxygenase); 10 uM with LPS (1 μg/ml)),COX activities (%) (COX (cyclooxygenase); 100 uM with LPS (1 μg/ml)),COX activities (%) (COX (cyclooxygenase); 500 uM with LPS (1 μg/ml)),inhibition at 1 µM (collagenase (MMP-1)) [%],inhibition at 10 µM (collagenase (MMP-1)) [%],inhibition at 50 µM (collagenase (MMP-1)) [%],further results
"O=C1CCC[C@@H]2[C@H]3CCCN4CCC[C@@H](CN12)[C@@H]34 [Matrine, matrine]",0.38,0.53,20,23,40,98,87,65,19,20,32,"Occurrence of cumulative irritation (pigmentation of skin; brown guinea pig skin, application for 50 days): not observing the occurrence of cumulative irritation; Average reaction level (human skin; 1% in squalene): 0; No. of test subjects with reaction, 2nd, ± (human skin; 1% in squalene, Week 1, of 30 subjects): 0; Average reaction level (human skin; 5% in squalene): 0.09; No. of test subjects with reaction, 1st, ± (human skin; [2]): 1; No. of test subjects with reaction, 2nd, ± (human skin; [2]): 0; Average reaction level (human skin; 10% in squalene): 0.18; No. of test subjects with reaction, 1st, ± (human skin; [3]): 2; No. of test subjects with reaction, 2nd, ± (human skin; [3]): 0"
"O=C1CCC[C@@H]2[C@H]3CCC[N+]4([O-])CCC[C@@H](CN12)[C@@H]34 (stereo partly shown) [Oxymatrine, oxymatrine]",0.24,0.50,11,15,22,94,81,71,6,13,17,"No. of test subjects with reaction, 1st, ± (human skin; human, in vivo): 2; No. of test subjects with reaction, 2nd, ± (human skin; human, in vivo): 0; No. of test subjects with reaction, 1st, ± (human skin; in vivo): −"
